Measurements as given in ChEMBL document CHEMBL3400061, “Structure-activity relationships of IKM-159: Diverted synthesis and biological evaluation of a series of C5-oxy analogs” (Bioorg Med Chem Lett, 2015).
Active and inactive are the calls of the source. The rule behind the calls is not given here.

What was measured:
Type in all cases: functional, organism-based
Mus musculus [1] = assay: Induction of loss of body motion in ddY mouse at 100 ug, icv
Mus musculus [2] = assay: Induction of loss of body flaccidness in ddY mouse at 100 ug, icv
Mus musculus [3] = assay: Effect on behavior in ddY mouse at 100 ug, icv
Mus musculus [4] = assay: Suppression of voluntary movements in ddY mouse at 100 ug, icv

SMILES: O=C(O)C[C@@]12O[C@H]3C=CCN[C@H]3[C@@H]1C(=O)N[C@H]2C(=O)O
- Activity (Mus musculus [1]): Active
- Activity (Mus musculus [2]): Active

SMILES: O=C(O)C[C@@]12O[C@H]3CC(=O)O[C@H]3[C@@H]1C(=O)N[C@H]2C(=O)O
- Activity (Mus musculus [3]): inactive

SMILES: C=C[C@@H]1O[C@@]2(CC(=O)O)[C@H](C(=O)O)NC(=O)[C@H]2[C@@H]1O
- Activity (Mus musculus [3]): inactive

SMILES: O=C(O)C[C@@]12O[C@H]3C=CC(=O)O[C@H]3[C@@H]1C(=O)N[C@H]2C(=O)O
- Activity (Mus musculus [3]): inactive

SMILES: O=C(O)C[C@@]12O[C@H]3C=CCO[C@H]3[C@@H]1C(=O)N[C@H]2C(=O)O
- Activity (Mus musculus [4]): Active
